From patent US20110207689A1, “THE TREATMENT OF HEARING LOSS” (Auckland UniServices Limited, priority 2008, published 2011)
“Also recorded” adds a separate entry of the source.

Columns and labels:
Assay type in all cases: in vivo, Wistar rats
[1] = test system: nitrotyrosine immunoreactivity in the organ of Corti; assay: Nitrotyrosine (NT) immunohistochemistry of cochlea after 24 hours noise (Experiment 1); settings: ADAC treated cochlea versus vehicle
Method: Hearing thresholds were assessed using auditory brainstem responses (ABRs) and the cellular damage was evaluated by quantitative histology (hair cell loss). ABR represents the activity of the auditory nerve and the central auditory pathways (brainstem/mid-brain regions) responding to the sound (clicks or pure tones). Nitrotyrosine marker was used for the immunohistochemical assessment of free radical damage.
After overnight fixation in 4% PFA, rat cochleae were decalcified in a 5% EDTA solution for 7 days and cryoprotected in a 30% sucrose (in 0.1 M PB) solution overnight. The cochleae were snap-frozen in N-pentane, and stored at −80° C. until further processing. Frozen cochlear tissues were cryosectioned at 30 μm and transferred into 24-well plates (Nalge Nunc Int., Naperville, USA) containing the sterile 0.1M PBS, and permeabilised with 1% Triton X-100 for 1 hr. Non-specific binding sites were blocked with 10% normal goat serum (Vector Laboratories, Burlingame, Calif.). […] Tissue sections were incubated with the secondary antibody for 2 hours in the dark, then rinsed several times in PBS, mounted in fluorescence medium (DAKO Corporation, Carpinteria, Calif., USA) and screened for NT specific immunofluorescence using a confocal microscope (TCS SP2, Leica Leisertechnik GmbH, Heidelberg, Germany). […]

[2] = test system: organ of Corti hair cells; assay: Hair cell loss, phalloidin-stained organ of Corti after 24 hours noise (Experiment 1); settings: basal turn, noise 8-12 kHz 110 dB SPL 24 hours, versus vehicle
Text: After the last ABR measurement, rats were killed by Pentobarbitone overdose and cochleae removed for histological analysis. The isolated cochleae were kept in 4% Paraformaldehyde overnight, until further processing (decapsulation or decalcification).
(§1) After the overnight fixation, the cochlea was decapsulated in 0.1 M PBS, to isolate the organ of Corti. The organ of Corti was removed with fine forceps, and separated into the apical, middle and basal turns. Wholemount tissues of the organ of Corti were placed into a 24-well plate, and then permeabilised with 1% Trition-X in 0.1 M PBS for 1 hour. 1% Alexa Fluor 488 phalloidin (Invitrogen) dissolved in 0.1 M PBS was used to stain the hair cells and their stereocilia. Tissues were incubated in phalloidin for 40 minutes, washed with 0.1 M PBS 3×10 min and mounted onto glass slides using CitiFlour. The slides were visualised using a Zeiss epi-fluorescence microscope and processed with Axiovision v3.1 software, using dark field filter and 100×, 200×, and 400× magnification. Non-overlapping images were taken for the entire length of the cochlea, and the number of missing outer hair cells was counted for each turn and presented as a percentage of total number of hair cells.

[3] = Body weight, temperature and behaviour in animals treated with ADAC (Experiment 2)
Method: A. Body weight was measured immediately before noise exposure and 14 days after noise exposure. B. Rectal temperature (° C.) was measured before ADAC administration and 30 and 60 minutes after the injection. Number of animals: n=8 per group.

[4] = test system: organ of Corti hair cells; assay: Hair cell counts after acute (2 hours) noise exposure (Experiment 2); settings: 2 h noise 110 dB SPL; five ADAC injections; vehicle 23-34%
Method: as §1
The percentage of total number of hair cells was determined as for Experiment 1.
The outer and inner hair cells were counted in Alexa 488 phalloidin-labelled surface preparation of the organ of Corti in the basal, middle and apical turns and the percentage of missing hair cells was calculated for each turn.

[5] = test system: rats exposed to 8-12 kHz band noise for 2 hours at 110 dB SPL; assay: ABR threshold shifts after acute (2 hours) noise exposure, systemic ADAC (Experiment 2); settings: 14 days post-noise
Method: ABRs were measured in response to auditory clicks and pure tones (4-28 kHz) before and at time intervals (30 minutes and 14 days) after noise exposure. Five ADAC injections (100 μg/kg i.p.) were administered at 24 hour intervals commencing 6 hours post-noise. In the control group, injections of the vehicle solution were administered at the same intervals as ADAC. Data are expressed as means±SEM. Animal numbers: n=8 per group. *p<0.05; **p<0.01; unpaired t-test.
Rats were exposed to 8-12 kHz band noise presented for 2 hours at 110 dB SPL. […]
ABRs were obtained by placing fine platinum electrodes subdermally at the mastoid region of the ear of interest (active electrode), scalp vertex (reference) and mastoid region of the opposite ear (ground electrode). […] The sound threshold of the ABR complex (waves I-IV) were determined by progressively attenuating the sound intensity until the waveform can no longer be observed. The acoustic stimuli for ABR were produced and the responses recorded using a Tucker-Davis Technologies auditory physiology workstation (Alachua, Fla., USA).
All ABR measurements were performed in a sound attenuator chamber (Shelburg Acoustics, Sydney, Australia). […] The ABR threshold was defined as the lowest intensity (to the nearest 5 dB) at which a response could be visually detected above the noise floor. […]

NCCNC(=O)Cc1ccc(NC(=O)Cc2ccc(Nc3ncnc4c3ncn4[C@@H]3O[C@H](CO)[C@@H](O)[C@H]3O)cc2)cc1 [ADAC, adenosine amine congener]
NT immunostaining in the cochlea [1]: very little NT immunostaining; also recorded: reduced in the ADAC treated cochlea to a background level | hair cell morphology, surface preparation of the organ of Corti [2]: well preserved hair cell morphology | overt behavioural changes ([3]; ADAC 100 μg/kg): did not induce overt behavioural changes | body weight ([3]; ADAC 100 μg/kg, before noise exposure and 14 days after): did not induce overt behavioural changes in rats or alterations in body weight | signs of systemic toxicity (loss of body weight, feeding or drinking behaviour, hypothermia) ([3]; ADAC treatment): No signs of systemic toxicity | body temperature (rectal) ([3]; before and 30 and 60 minutes after ADAC 100 μg/kg injection): remained stable | hair cell loss, basal cochlear turn (average) [4]: 9% | hair cell loss, middle cochlear turn (average) [4]: 7% | ABR threshold shifts versus vehicle-treated controls ([5]; five ADAC injections): threshold shifts were reduced | threshold recovery, highest ([5]; pure tone frequencies 4 to 16 kHz, five ADAC injections 100 μg/kg i.p. commencing 6 hours post-noise): up to 30 dB
